Assays:
Serum cholesterol = Serum cholesterol lowering in dogs dosed 15 days with fenofibrate, CGS23425 or the combination; format: in vivo
Description: Dogs were administered 50 mg/kg/day fenofibrate alone, 10 μg/kg/day CGS23425 alone, or the combination of 50 mg/kg/day fenofibrate +10 μg/kg/day CGS23425 for a period of 15 days. Cholesterol lowering was measured on treatment days 6, 8, 10, 13, 14, and 15.

Serum total cholesterol = Serum total cholesterol lowering in rats dosed 9 days with CGS23425 in diet with and without fenofibrate
Description: Male Sprague-Dawley rats (wt 125-150 g, 10 per group) were acclimated for one week with a normal chow (Purina #5001 powder) and had free access to drinking water. The animals, with increased weight to about 200 to 250 grams, were dosed 9 days with various doses of CGS23425 (0, 0.005, 0.05 and 0.5 ppm in diet, where total diet consumption was about 10 to 15 grams per day) with and without the presence of 25 mg/kg of body weight of fenofibrate given via oral gavage once a day. After the dosing period, the animals were fasted for 18 hours and euthanized and the blood was withdrawn via cardiac puncture.

Compound	Serum cholesterol lowering in dogs (% reduction) (Serum cholesterol; fenofibrate 50 mg/kg/day alone, treatment day 6)	Serum cholesterol lowering in dogs (% reduction) (Serum cholesterol; fenofibrate 50 mg/kg/day alone, treatment day 8)	Serum cholesterol lowering in dogs (% reduction) (Serum cholesterol; fenofibrate 50 mg/kg/day alone, treatment day 10)	Serum cholesterol lowering in dogs (% reduction) (Serum cholesterol; fenofibrate 50 mg/kg/day alone, treatment day 13)	Serum cholesterol lowering in dogs (% reduction) (Serum cholesterol; fenofibrate 50 mg/kg/day alone, treatment day 14)	Serum cholesterol lowering in dogs (% reduction) (Serum cholesterol; fenofibrate 50 mg/kg/day alone, treatment day 15)	Serum cholesterol lowering in rats (% reduction) (Serum total cholesterol; fenofibrate 25 mg/kg oral gavage once a day alone (CGS23425 0 ppm), fasted 18 hours)	Serum cholesterol lowering in rats (% reduction) (Serum total cholesterol; fenofibrate 25 mg/kg oral gavage once a day alone (CGS23425 0 ppm), fasted 18 hours, listed as fenofibrate)	Serum cholesterol lowering in dogs (% reduction) (Serum cholesterol; CGS23425 10 μg/kg/day alone, treatment day 6)	Serum cholesterol lowering in dogs (% reduction) (Serum cholesterol; CGS23425 10 μg/kg/day alone, treatment day 8)	Serum cholesterol lowering in dogs (% reduction) (Serum cholesterol; CGS23425 10 μg/kg/day alone, treatment day 10)	Serum cholesterol lowering in dogs (% reduction) (Serum cholesterol; CGS23425 10 μg/kg/day alone, treatment day 13)	Serum cholesterol lowering in dogs (% reduction) (Serum cholesterol; CGS23425 10 μg/kg/day alone, treatment day 14)	Serum cholesterol lowering in dogs (% reduction) (Serum cholesterol; CGS23425 10 μg/kg/day alone, treatment day 15)	Serum cholesterol lowering in rats (% reduction) (Serum total cholesterol; CGS23425 0.005 ppm in diet alone (fenofibrate 0 mg/kg))	Serum cholesterol lowering in rats (% reduction) (Serum total cholesterol; CGS23425 0.05 ppm in diet alone (fenofibrate 0 mg/kg))	Serum cholesterol lowering in rats (% reduction) (Serum total cholesterol; CGS23425 0.5 ppm in diet alone (fenofibrate 0 mg/kg))
CC(C)OC(=O)C(C)(C)Oc1ccc(C(=O)c2ccc(Cl)cc2)cc1 [Fenofibrate, fenofibrate]	0.1 ± 2.5	3.5 ± 1.8	8.6 ± 3.4	12.1 ± 4.3	12.4 ± 7.5	14.3 ± 4.0	12 ± 5	12±5	–	–	–	–	–	–	–	–	–
Cc1cc(NC(=O)C(=O)O)cc(C)c1Oc1ccc(O)c(C(C)C)c1 [CGS23425, N-[3,5-dimethyl-4-(4′-hydroxy-3′-isopropylphenoxy)-phenyl]-oxamic acid]	–	–	–	–	–	–	–	–	13 ± 1.2	15.4 ± 2.3	18.4 ± 3.0	22.9 ± 2.5	21.1 ± 3.9	24.3 ± 1.7	4 ± 6	9±4	3 ± 7
